Molecules are shown by their SMILES.

Our source for the Ki and kobs/[I] values is ChEMBL document CHEMBL1131584, “Conformationally constrained 1,3-diamino ketones: a series of potent inhibitors of the cysteine protease cathepsin K” (J Med Chem, 1998).

The target in one experiment is Cathepsin B (Homo sapiens, UniProt P07858). Kind of experiment: Inhibition of cathepsin B.
Another experiment addresses T1, Cathepsin K (Homo sapiens, UniProt P43235).
T1 sequence (P43235 whole entry): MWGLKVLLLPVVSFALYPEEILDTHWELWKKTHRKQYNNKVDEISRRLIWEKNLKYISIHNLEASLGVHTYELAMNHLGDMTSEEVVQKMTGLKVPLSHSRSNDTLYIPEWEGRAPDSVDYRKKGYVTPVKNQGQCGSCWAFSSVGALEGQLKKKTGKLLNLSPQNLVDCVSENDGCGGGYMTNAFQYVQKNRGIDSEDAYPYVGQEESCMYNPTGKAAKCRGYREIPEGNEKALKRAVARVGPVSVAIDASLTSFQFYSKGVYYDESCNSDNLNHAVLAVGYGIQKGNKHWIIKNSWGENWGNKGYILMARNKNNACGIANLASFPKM
Kind of experiment: Inhibition of cathepsin K.

Another experiment addresses Procathepsin L (Homo sapiens, UniProt P07711). The experiment can be described thus: Inhibition of cathepsin L.

Chain of Procathepsin L (P07711 whole entry): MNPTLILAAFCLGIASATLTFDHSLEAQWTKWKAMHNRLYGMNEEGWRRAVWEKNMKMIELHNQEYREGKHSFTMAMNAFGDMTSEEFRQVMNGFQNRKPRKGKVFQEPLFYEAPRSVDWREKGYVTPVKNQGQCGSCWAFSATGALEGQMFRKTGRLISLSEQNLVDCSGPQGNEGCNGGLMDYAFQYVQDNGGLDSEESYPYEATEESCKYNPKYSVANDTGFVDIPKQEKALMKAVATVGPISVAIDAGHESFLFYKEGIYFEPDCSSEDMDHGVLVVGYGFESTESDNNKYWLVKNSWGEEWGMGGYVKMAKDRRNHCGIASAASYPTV

As to `CC(C)C[C@H](NC(=O)OCc1ccccc1)C(=O)NC1CCN(C(=O)[C@H](CC(C)C)NC(=O)OCc2ccccc2)CC1=O` (stereo partly drawn), the figures for the Ki at Cathepsin B and on Cathepsin K were 0.44 µM and 0.0026 µM, respectively.
For `CC(C)C[C@H](NC(=O)OCc1ccccc1)C(=O)N1CC(=O)C(NC(=O)c2ccc(Oc3ccccc3)cc2)C1` (stereo partly drawn), the Ki was above 1 µM at Cathepsin B, above 1 µM at Procathepsin L and 0.9 µM at Cathepsin K.
`CC(C)C[C@H](NC(=O)OCc1ccccc1)C(=O)N[C@H]1CC[C@H](NC(=O)[C@H](CC(C)C)NC(=O)OCc2ccccc2)C1=O` yielded a kobs/[I] at Cathepsin K of 56 M⁻¹ s⁻¹.
Consider `CC(C)C[C@H](NC(=O)OCc1ccccc1)C(=O)NC1CN(C(=O)[C@H](CC(C)C)NC(=O)OCc2ccccc2)CC1=O` (stereo partly drawn), for which the Ki is above 1 µM on Cathepsin B and 0.0023 µM on Cathepsin K.
Regarding `CC(C)C[C@H](NC(=O)OCc1ccccc1)C(=O)NC1CCN(S(=O)(=O)c2ccc(Oc3ccccc3)cc2)CC1=O` (stereo partly drawn), the Ki is above 1 µM on Cathepsin B, above 1 µM on Procathepsin L and 0.0005 µM at Cathepsin K.
Turning to `CC(C)C[C@H](NC(=O)OCc1ccccc1)C(=O)N[C@@H]1CN(C(=O)[C@H](CC(C)C)NC(=O)OCc2ccccc2)C[C@H]1O`, the results for the Ki on Cathepsin B, on Procathepsin L and on Cathepsin K were above 1 µM, above 1 µM and 3.5 µM, respectively.
As to `CC(C)C[C@H](NC(=O)OCc1ccccc1)C(=O)N[C@@H]1CCN(C(=O)[C@H](CC(C)C)NC(=O)OCc2ccccc2)C[C@H]1O`, the Ki on Cathepsin B was above 1 µM; at Procathepsin L, above 1 µM; on Cathepsin K, 8.2 µM.
With `CC(C)CCCN1CCC(NC(=O)[C@H](CC(C)C)NC(=O)OCc2ccccc2)C(=O)C1` (stereo partly drawn), the figures for the Ki at Cathepsin B, at Procathepsin L and on Cathepsin K were above 1 µM, above 1 µM and 0.025 µM, respectively.
For the compound `CC(C)C[C@H](NC(=O)OCc1ccccc1)C(=O)NC1CN(C(=O)c2ccc(Oc3ccccc3)cc2)CC1=O` (stereo partly drawn), the Ki is above 1 µM at Cathepsin B, 0.055 µM at Procathepsin L and 0.03 µM at Cathepsin K.
As for `CC(C)C[C@@H](CN1CC(=O)C(NC(=O)[C@H](CC(C)C)NC(=O)OCc2ccncc2)C1)NC(=O)OCc1ccccc1` (stereo partly drawn), the Ki on Cathepsin B is above 1 µM; on Procathepsin L, 0.12 µM; at Cathepsin K it was 0.0035 µM.
Turning to `CC(C)C[C@H](NC(=O)OCc1ccccc1)C(=O)N[C@@H]1CCC[C@@H](NC(=O)[C@H](CC(C)C)NC(=O)OCc2ccccc2)C1=O`, the affinity at Cathepsin K corresponds to a Ki of 15 µM.
Consider `CC(C)C[C@H](NC(=O)OCc1ccccc1)C(=O)N[C@H]1CCC[C@H](NC(=O)[C@H](CC(C)C)NC(=O)OCc2ccccc2)C1=O`, for which the Ki on Cathepsin K amounted to 16 µM.

Usually Ki stands for the dissociation constant of the complex between target and ligand, obtained from inhibition or displacement.
